This note sets out measurements from PubChem BioAssay AID179 (DTP/NCI, 2004).

The source made the active and inactive calls.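 Rule for the calls: active = compounds giving half or more protection of infected cells from virus-caused growth loss, again on retest; inactive = the rest.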

This assay concerns CEM cells HIV-1 protection, formazan growth assay. Put plainly: NCI AIDS Antiviral Assay. The following applies: for IC50: measured here: growth of uninfected CEM cells. The method in brief: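 CEM (human) cells, HIV-1 infected vs uninfected, 5-point dosing, formazan growth read-out. Retest threshold 50% protection.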

Turning to `Cc1cccc(C(O)c2cccnc2)c1O` (stereo not given), the EC50 (in general, the concentration giving half of the maximal effect) was greater than 200 µM and the concentration for half-maximal inhibition (IC50) (usually the concentration needed to halve the response being measured) was greater than 200 µM.

`CN1C(=O)C2(C)SSC1(C)C(=O)N2C`: the EC50 is greater than 200 µM and the IC50 is 12 µM.

For the compound `[N-]=[N+]=Nc1c([N+](=O)[O-])c(Cl)nc2ccccc12`, the EC50 was greater than 20 µM and the 50% inhibitory concentration (IC50) is 10 µM.

Take `COc1ccc(OCc2ccc3nc(-c4ccccc4)c(Cl)nc3c2)cc1`: the EC50 is greater than 200 µM and the half-maximal inhibitory concentration (IC50) is 20.4 µM. In the case of `CCOC(=O)C(=O)C1CCCCC1=O` (stereo not given), the EC50 is greater than 200 µM and the IC50 amounted to 43.7 µM. For `CCCCCCCCCCCCCCCCOC1OC(CBr)C(O)C(O)C1O` (stereo not given) the same measures were greater than 8.13 µM and greater than 8.13 µM. For `c1ccc(C2Nc3ccccc3C3OCCCC23)cc1` (stereo not given) the same measures were greater than 70.8 µM and greater than 70.8 µM. For `CCOc1ccccc1NC(=O)C1=C(C)NC(C)=C(C(=O)Nc2ccccc2OCC)C1c1cccc([N+](=O)[O-])c1` the same measures were greater than 12.9 µM and greater than 12.9 µM. For the compound `Brc1cccc(-c2nc3ccccc3[nH]2)c1`, the EC50 was greater than 132 µM and the IC50 was found to be 87.1 µM. For `Cn1c(=O)c2nc(N3CCCCC3)cnc2n(C)c1=O` the same measures were greater than 200 µM and greater than 200 µM. For `c1ccc(N=C(N2CCOCC2)N(CCN2CCOCC2)c2ccccc2)cc1`, in that order: greater than 200 µM and 182 µM.

Consider `O=c1[nH]nc(-c2ccc([N+](=O)[O-])cc2)[nH]1`, for which the EC50 was greater than 200 µM and the IC50 was greater than 200 µM.

In the case of `COc1ccc(CC2C(=O)NC(=O)NC2=O)cc1OC`, the EC50 is greater than 200 µM and the IC50 is greater than 200 µM.

On to `Nc1ccc(C2=Nc3ccccc3SC(c3ccccc3O)C2)cc1` (stereo not given), for which the EC50 is greater than 11 µM and the concentration for half-maximal inhibition (IC50) is greater than 11 µM.

Turning to `CN1C(=S)CSc2ccccc21`, the EC50 is greater than 182 µM and the IC50 is greater than 182 µM. Regarding `CN(C)CCCCNc1c2c(nc3c(Cl)cccc13)CCC2`, the EC50 is greater than 794 µM and the half-inhibitory concentration (IC50) amounted to 16.6 µM. Turning to `CO/C(=N/N1CC1C(F)(F)F)c1ccncc1` (stereo not given), the outcome was inactive. For `CCOC(=O)c1c(SCC#N)n(-c2ccccc2)c(=S)n(-c2ccccc2)c1=O`, the EC50 was greater than 200 µM and the 50% inhibitory concentration (IC50) is 13.8 µM. As to `O=C1C(c2ccccc2)=C(c2ccccc2)C(c2ccc(Sc3ccc(C4=C(c5ccccc5)C(=O)C(c5ccccc5)=C4c4ccccc4)cc3)cc2)=C1c1ccccc1`, the EC50 was greater than 1.82 µM and the IC50 was greater than 1.82 µM. Turning to `O=C(c1ccccc1)C1C(c2ccccc2)N1S(=O)(=O)c1ccccc1` (stereo not given), the EC50 was greater than 20 µM and the IC50 came to 3.02 µM. Turning to `COc1ccc(NS(=O)c2cccc(C)c2)cc1` (stereo not given), the EC50 is greater than 200 µM and the 50% inhibitory concentration (IC50) amounted to 11.2 µM. As for `CCOC(OC1=C(C#N)CCC1)C(CC)[Se]c1ccccc1` (stereo not given), the EC50 was greater than 70.8 µM and the IC50 was 52.5 µM. Turning to `CC(=O)Oc1cccc2c1C(=O)CCCC2`, the EC50 is greater than 200 µM and the IC50 is greater than 200 µM. For `O=C(CCC(=O)Nc1ccc(Cl)c(Cl)c1)CC(=O)c1ccc(Cl)cc1`, the result was inactive.

For the compound `CN(C)Cc1c[nH]c2nc[nH]c(=O)c12`, the EC50 is greater than 200 µM and the IC50 came out at 25.7 µM.

Take `CCn1c(=N)sc2nc3ccccc3n2c1=O`: the EC50 is greater than 200 µM and the concentration for half-maximal inhibition (IC50) is 58.9 µM. `NC(CSS(=O)(=O)O)=NC1CC2CCC1C2` (stereo not given): the EC50 was greater than 200 µM and the 50% inhibitory concentration (IC50) was determined as 120 µM.

Take `CC(=O)/C(=C/c1ccc(-c2ccccc2)cc1)C(=O)c1ccccc1`: the EC50 is 1.58 µM and the IC50 came out at 15.8 µM.

As for `CC1(C)NC(=O)[C@]2(C[C@@H](OC(=O)c3ccccc3)C=C2C=O)O1`, the EC50 is greater than 200 µM and the IC50 was found to be 2.45 µM. As to `O=c1[nH]c(=O)n(C2OC(CO)C(O)C2O)c2nc(-c3ccc(-c4ccccc4)cc3)cnc12` (stereo not given), the EC50 is greater than 200 µM and the IC50 is greater than 200 µM. For `CC(=O)NC1(C)CCC(C(C)(C)NC(C)=O)CC1` (stereo not given), the EC50 is greater than 200 µM and the 50% inhibitory concentration (IC50) was greater than 200 µM.
